Columns and labels:
Assay in all cases: relative viability (nuclei count vs DMSO), 5 days (fraction); higher = more cells survive
NCI-H1666 = test system: NCI-H1666
Summary of the method: (§1)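 A single step with final 0.05% Triton X-100, 1% formaldehyde and 1 ug/ml Hoechst fixed the cells and stained nuclei 5 days after treatment. Lung cancer cell lines in 1536-well plates had been treated by pin tool the day after seeding with one drug alone or a fixed anchor-drug dose plus five library-drug doses (not always all listed) in √10 steps, and nuclei were counted on 4× images. Relative viability is the ratio of nuclei in treated wells to nuclei in vehicle wells, taken as the median of duplicate plates.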

NCI-H1975 = test system: NCI-H1975
Summary of the method: as §1

NCI-H2126 = test system: NCI-H2126
Summary of the method: as §1

NCI-H2342 = test system: NCI-H2342
Summary of the method: as §1

NCI-H23 = test system: NCI-H23
Summary of the method: as §1

NCI-H2405 = test system: NCI-H2405
Summary of the method: as §1

NCI-H322M = test system: NCI-H322M
Summary of the method: as §1

PC-14 = test system: PC-14
Summary of the method: as §1

RERF-LC-KJ = test system: RERF-LC-KJ
Summary of the method: as §1

SK-LU-1 = test system: SK-LU-1
Summary of the method: as §1

SW 1573 = test system: SW 1573
Summary of the method: as §1

SW 900 = test system: SW 900
Summary of the method: as §1

O=c1cc(-c2cccc3c2Sc2ccccc2S3)oc(N2CCOCC2)c1 + Nc1nc2[nH]cc(CCc3ccc(C(=O)N[C@@H](CCC(=O)O)C(=O)O)cc3)c2c(=O)[nH]1 [Pemetrexed] (partner 0.2 µM)
relative viability (NCI-H1666; first compound 0.8 µM): 0.762 | relative viability (NCI-H1666; first compound 2.53 µM): 0.758 | relative viability (NCI-H1666; first compound 8 µM): 0.793 | relative viability (NCI-H1975; first compound 0.08 µM): 0.318 | relative viability (NCI-H1975; first compound 0.253 µM): 0.29 | relative viability (NCI-H1975; first compound 0.8 µM): 0.313 | relative viability (NCI-H1975; first compound 2.53 µM): 0.287 | relative viability (NCI-H1975; first compound 8 µM): 0.288 | relative viability (NCI-H2126; first compound 0.08 µM): 0.682 | relative viability (NCI-H2126; first compound 0.253 µM): 0.785 | relative viability (NCI-H2126; first compound 0.8 µM): 0.71 | relative viability (NCI-H2126; first compound 2.53 µM): 0.695 | relative viability (NCI-H2126; first compound 8 µM): 0.645 | relative viability (NCI-H2342; first compound 0.08 µM): 0.703 | relative viability (NCI-H2342; first compound 0.253 µM): 0.817 | relative viability (NCI-H2342; first compound 0.8 µM): 0.718 | relative viability (NCI-H2342; first compound 2.53 µM): 0.725 | relative viability (NCI-H2342; first compound 8 µM): 0.848 | relative viability (NCI-H23; first compound 0.08 µM): 0.584 | relative viability (NCI-H23; first compound 0.253 µM): 0.902 | relative viability (NCI-H23; first compound 0.8 µM): 0.72 | relative viability (NCI-H23; first compound 2.53 µM): 0.518 | relative viability (NCI-H23; first compound 8 µM): 0.575 | relative viability (NCI-H2405; first compound 0.08 µM): 0.859 | relative viability (NCI-H2405; first compound 0.253 µM): 1.1 | relative viability (NCI-H2405; first compound 0.8 µM): 1.06 | relative viability (NCI-H2405; first compound 2.53 µM): 0.83 | relative viability (NCI-H2405; first compound 8 µM): 1.02 | relative viability (NCI-H322M; first compound 0.08 µM): 0.57 | relative viability (NCI-H322M; first compound 0.253 µM): 0.61 | relative viability (NCI-H322M; first compound 0.8 µM): 0.598 | relative viability (NCI-H322M; first compound 2.53 µM): 0.634 | relative viability (NCI-H322M; first compound 8 µM): 0.602 | relative viability (PC-14; first compound 0.08 µM): 0.138 | relative viability (PC-14; first compound 0.253 µM): 0.135 | relative viability (PC-14; first compound 0.8 µM): 0.132 | relative viability (PC-14; first compound 2.53 µM): 0.119 | relative viability (PC-14; first compound 8 µM): 0.12 | relative viability (RERF-LC-KJ; first compound 0.08 µM): 0.443 | relative viability (RERF-LC-KJ; first compound 0.253 µM): 0.469 | relative viability (RERF-LC-KJ; first compound 0.8 µM): 0.504 | relative viability (RERF-LC-KJ; first compound 2.53 µM): 0.474 | relative viability (RERF-LC-KJ; first compound 8 µM): 0.469 | relative viability (SK-LU-1; first compound 0.08 µM): 1.1 | relative viability (SK-LU-1; first compound 0.253 µM): 1.27 | relative viability (SK-LU-1; first compound 0.8 µM): 1.14 | relative viability (SK-LU-1; first compound 2.53 µM): 0.885 | relative viability (SK-LU-1; first compound 8 µM): 1.03 | relative viability (SW 1573; first compound 0.08 µM): 0.754 | relative viability (SW 1573; first compound 0.253 µM): 1.11 | relative viability (SW 1573; first compound 0.8 µM): 0.865 | relative viability (SW 1573; first compound 2.53 µM): 0.838 | relative viability (SW 1573; first compound 8 µM): 0.924 | relative viability (SW 900; first compound 0.253 µM): 0.492 | relative viability (SW 900; first compound 0.8 µM): 0.495 | relative viability (SW 900; first compound 2.53 µM): 0.439 | relative viability (SW 900; first compound 8 µM): 0.438
